From ChEMBL document CHEMBL1811826, “Structure-activity relationship and docking studies of thiazolidinedione-type compounds with monoamine oxidase B” (Bioorg Med Chem Lett, 2011)
Activity calls are given as the source filed them. No cut-off for these calls is given here.

Assays:
[1] = biological target: T1, Amine oxidase [flavin-containing] B (Homo sapiens, UniProt P27338); assay: Inhibition of human recombinant MAOB by amplex red assay
T1 sequence (P27338 whole entry): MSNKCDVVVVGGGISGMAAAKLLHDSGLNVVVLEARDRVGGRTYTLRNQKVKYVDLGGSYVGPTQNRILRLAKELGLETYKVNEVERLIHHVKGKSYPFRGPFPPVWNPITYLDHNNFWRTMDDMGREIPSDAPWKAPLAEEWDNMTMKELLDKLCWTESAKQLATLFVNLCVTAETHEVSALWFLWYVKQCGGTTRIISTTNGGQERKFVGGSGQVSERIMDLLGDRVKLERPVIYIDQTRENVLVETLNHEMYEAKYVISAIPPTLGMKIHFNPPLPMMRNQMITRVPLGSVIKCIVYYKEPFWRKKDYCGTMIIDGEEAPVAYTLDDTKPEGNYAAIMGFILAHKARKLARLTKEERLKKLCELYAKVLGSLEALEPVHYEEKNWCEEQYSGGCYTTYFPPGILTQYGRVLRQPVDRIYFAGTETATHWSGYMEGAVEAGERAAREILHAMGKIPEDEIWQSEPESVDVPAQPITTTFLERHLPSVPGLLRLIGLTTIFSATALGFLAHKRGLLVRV

Mus musculus [2] = assay: Toxicity in C57BL/6 mouse assessed as striatal dopamine level at 10 mg/kg, sc measured after 7 days by HPLC method; assay type: organism-based; set-up: dose 10 mg/kg, route subcutaneous; conditions: in vivo, 168 h
Mus musculus [3] = assay: Neuroprotective activity in MPTP-stimulated C57BL/6 mouse assessed as increase in striatal dopamine content at 10 mg/kg, sc administered 1 hr before MPTP challenge measured after 7 days by HPLC method; assay type: functional, organism-based; set-up: dose 10 mg/kg
[4] = biological target: T2, Amine oxidase [flavin-containing] A (Homo sapiens, UniProt P21397); assay: Inhibition of human recombinant MAOA assessed as inhibition of kynuramine conversion to fluorescent metabolite 4-hydroxyquinoline by fluorimetry
T2 sequence (P21397 whole entry): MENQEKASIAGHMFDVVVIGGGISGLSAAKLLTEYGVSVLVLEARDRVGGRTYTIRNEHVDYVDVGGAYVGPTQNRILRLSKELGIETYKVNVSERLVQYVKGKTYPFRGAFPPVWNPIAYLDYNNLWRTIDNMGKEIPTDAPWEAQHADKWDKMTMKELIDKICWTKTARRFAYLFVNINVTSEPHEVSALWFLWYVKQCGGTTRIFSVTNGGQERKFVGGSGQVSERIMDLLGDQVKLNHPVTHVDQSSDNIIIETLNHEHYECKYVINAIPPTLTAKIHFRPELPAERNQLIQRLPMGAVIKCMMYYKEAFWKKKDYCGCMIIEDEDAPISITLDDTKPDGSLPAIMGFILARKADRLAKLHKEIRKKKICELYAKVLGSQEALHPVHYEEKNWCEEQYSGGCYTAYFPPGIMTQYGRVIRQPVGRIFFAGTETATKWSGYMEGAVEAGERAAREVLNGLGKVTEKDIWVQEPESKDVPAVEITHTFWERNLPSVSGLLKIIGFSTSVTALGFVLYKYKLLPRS

Structure (SMILES)	IC50 [1] [µM]	Activity (Mus musculus [2])	Activity (Mus musculus [3])	IC50 [4] [µM]
N=C1NC(=O)C(Cc2ccccc2)S1 (stereo unspecified)	24.1	–	–	–
CC(C)(C)c1cc(CC2SC(=O)N=C2O)cc(C(C)(C)C)c1O (stereo unspecified)	2.38	Non-toxic	Active	–
CN1C(=O)/C(=C\c2ccc(Cl)cc2)SC1=S	36.5	–	–	399
CCOc1ccc(/C=C2\SC(=O)N(CCN)C2=O)cc1	–	–	–	1.04
O=C(O)CCN1C(=O)/C(=C\c2ccccc2)SC1=S	604	–	–	70.5
O=C1NC(=O)/C(=C\c2ccncc2)S1	–	–	–	13
CN(C)c1ccc(/C=C2\SC(=O)N(CCN)C2=O)cc1	–	–	–	6.88
O=C(O)C(Cc1ccc(O)cc1)N1C(=O)CSC1=S (stereo unspecified)	273	–	–	–
O=C1NC(=O)C(Cc2ccc(O)cc2)S1 (stereo unspecified) [GLITAZONE]	225	–	–	194
COc1cc(/C=C2/SC(=S)NC2=O)c(OC)cc1O	31.6	–	–	380
O=C1NC(=S)S/C1=C/c1ccncc1	–	–	–	21.8
CC(=O)c1ccc(CC2SC(=N)NC2=O)cc1 (stereo unspecified)	309	–	–	252
O=C(/C=C1/SC(=O)NC1=O)Nc1ccccc1	22	–	–	35.3
COc1cc(/C=C2\SC(=S)NC2=O)ccc1O	2.49	–	–	28.6
O=C1NC(=O)/C(=C/c2ccc3nccnc3c2)S1	–	–	–	166
Cc1cc(C)cc(CC2SC(=O)NC2=O)c1 (stereo unspecified)	–	–	–	50.5
COc1ccccc1/C=C1\SC(=O)N(CCN)C1=O	–	–	–	29.8
N#CCCN1C(=O)S/C(=C\c2ccccc2)C1=O	–	–	–	3.49
O=C1NC(=O)/C(=C\c2cc(Br)c(O)c(Br)c2)S1	1.02	–	–	39.9
CN1C(=O)/C(=C\c2ccccc2)SC1=S	10.5	–	–	0.52
O=C1NC(=O)/C(=C\c2cccc(Br)c2)S1	6.07	–	–	67.3
O=C1NC(=O)/C(=N\c2ccc(C(=O)O)cc2)S1	56	–	–	37.3
Cc1cc(CC2SC(=O)NC2=O)cc(C)c1O (stereo unspecified)	16.1	–	–	26.2
O=C(/C=C1/SC(=O)NC1=O)Nc1cccc(O)c1	11	–	–	35.3
CCCN1C(=O)/C(=C\c2ccncc2)SC1=S	0.8	–	–	10.6
